From ChEMBL document CHEMBL1143089, “Structure-based design and subsequent optimization of 2-tolyl-(1,2,3-triazol-1-yl-4-carboxamide) inhibitors of p38 MAP kinase” (Bioorg Med Chem Lett, 2008) come the findings set out here.

For one assay, the system named is THP-1. Description: Inhibition of LPS-stimulated TNFalpha production in human THP1 cells. It is filed as functional, cell-based.
Assay [1] is described as follows: Binding affinity to mitogen-activated protein kinase p38 by thermal denaturation assay.
The test system of the next assay is Blood. Briefly: Inhibition of LPS-stimulated TNFalpha production in human whole blood. The assay is classed as functional, tissue-based.
A short description of assay [2]: Binding affinity to mitogen-activated protein kinase p38.

On to `CCOC(=O)C1=CN(c2cc(C(=O)Nc3cc(C(C)(C)C)cc(NS(C)(=O)=O)c3OC)ccc2C)NN1`, for which the IC50 is over 5 µM in the assay with THP-1 and 9 µM in the assay with Blood. Further, the Tm in assay [1] was found to be 56.2 °C. The Kd in assay [2] came to 0.008 µM.
